Key:
human PPAR δ = biological target: T1, human PPAR δ (Homo sapiens, UniProt Q03181); test: Luciferase assay using human PPAR δ (Gal4-PPAR δ ligand binding domain chimera, CV-1 cells); format: cell-based; details: relative value, carbacyclin at 30 μM defined as 1
T1 construct: expressed in transfected cells; host or cells: CV-1 cells
T1 sequence (Q03181 139-441): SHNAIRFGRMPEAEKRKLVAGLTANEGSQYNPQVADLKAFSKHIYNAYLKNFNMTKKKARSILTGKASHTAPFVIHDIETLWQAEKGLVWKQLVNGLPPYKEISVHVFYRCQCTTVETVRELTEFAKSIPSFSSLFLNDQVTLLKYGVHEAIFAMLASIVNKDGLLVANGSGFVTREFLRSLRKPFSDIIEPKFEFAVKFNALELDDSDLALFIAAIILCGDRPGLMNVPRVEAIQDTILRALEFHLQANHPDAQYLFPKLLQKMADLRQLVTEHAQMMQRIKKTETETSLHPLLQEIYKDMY

[1] = tested on: Male mice (C57BL/6NCrj) loaded with a high-cholesterol feed; test: Lowering action for cholesterol in blood and lipid in blood, mice loaded with high-cholesterol feed; format: in vivo; details: relative value, medium group = 100%
Protocol: Lowering action for cholesterol in blood and lipid in blood:
Male mice of seven weeks age (C57BL/6NCrj) was loaded with a high-cholesterol feed (CRF-1 Solid Feed in which 5.5% of peanut oil, 1.5% of cholesterol and 0.5% of cholic acid were mixed; Oriental Bio Service) for six days, then body weight of the […] was measured under fasting and the following various parameter concentrations were measured. Measured items were LDL, HDL, TG value, NEFA and TC value. […] From the next day, a compound suspended in a medium (a 0.5% methyl cellulose solution) was compulsorily administered per os once daily for continuous six days and, at the same time, loading with the high cholesterol feed was continued as well. On the next day of the final administration (i.e., on the seventh day from the start of the administration), lipid levels in blood (TG, HDL, LDL, NEFA and TC values) were measured.
When the data were expressed as relative values where the value for the group to which a medium was administered was defined as 100%, a raising action for HDL and a lowering action for LDL of the compound produced in Example 9 (47) were as shown in Table 2.

[2] = dose 3 mg/kg per os once daily for six days
[3] = dose 10 mg/kg per os once daily for six days
[4] = dose 30 mg/kg per os once daily for six days

Cc1cc(Oc2ccc(C)cc2OCC#Cc2ccc(C(F)(F)F)cc2)cc(C(=O)O)c1 [Example 9 (47), 3-methyl-5-[4-methyl-2-({3-[4-(trifluoromethyl)phenyl]-2-propynyl}oxy)phenoxy]benzoic acid]
Transcription activation degree (human PPAR δ; final concentration 0.1 μM): 0.73 Fold Increase
Transcription activation degree (human PPAR δ; final concentration 0.3 μM): 1.09 Fold Increase
Transcription activation degree (human PPAR δ; final concentration 1.0 μM): 1.02 Fold Increase
HDL-raising action [1, 2]: 112.0%
LDL-lowering action [1, 2]: 89.7%
HDL-raising action [1, 3]: 110.2%
LDL-lowering action [1, 3]: 85.3%
HDL-raising action [1, 4]: 130.7%
LDL-lowering action [1, 4]: 84.4%
